3 molecules from ChEMBL document CHEMBL5712891, “Inhibition of BET bromodomain-dependent XIAP and FLIP expression sensitizes KRAS-mutated NSCLC to pro-apoptotic agents” (Cell Death Dis, 2016) can be followed below.

The test system of test [1] is A549. The test is described as follows: Induction of cell cycle arrest in human A549 cells assessed as accumulation of cells at G2/M phase at 1 uM for 24 hrs by Click-iT EdU Alexa Fluor 647 flow cytometric assay kit analysis (reference value: 3%). Type of test: functional.
Test [2] deals with A549. Description: Induction of cell cycle arrest in human A549 cells assessed as accumulation of cells at S phase at 0.25 uM for 24 hrs by Click-iT EdU Alexa Fluor 647 flow cytometric assay kit analysis (reference value: 35%). Type of test: functional. (Flow cytometry measures light scatter and fluorescence of single cells or particles in a stream.)
Test [3] concerns DV-90. The test is described as follows: Induction of cell cycle arrest in human DV-90 cells assessed as accumulation of cells at G0/G1 phase at 0.5 uM for 24 hrs by Click-iT EdU Alexa Fluor 647 flow cytometric assay kit analysis (reference value: 44%). Type of test: functional.
Test [4] has as its system DV-90. The test is described as follows: Induction of cell cycle arrest in human DV-90 cells assessed as accumulation of cells at G0/G1 phase at 0.1 uM for 24 hrs by Click-iT EdU Alexa Fluor 647 flow cytometric assay kit analysis (reference value: 44%). Type of test: functional.
The subject of test [5] is NCI-H1373. The test is described as follows: Induction of cell cycle arrest in human NCI-H1373 cells assessed as accumulation of cells at S phase at 1 uM for 24 hrs by Click-iT EdU Alexa Fluor 647 flow cytometric assay kit analysis (reference value: 45%). Type of test: functional.
Test [6] has as its system NCI-H1373. Description: Induction of cell cycle arrest in human NCI-H1373 cells assessed as accumulation of cells at G0/G1 phase at 0.5 uM for 24 hrs by Click-iT EdU Alexa Fluor 647 flow cytometric assay kit analysis (reference value: 40%). Type of test: functional.
The subject of test [7] is DV-90. Description: Induction of apoptosis in human DV-90 cells assessed as late apoptotic cells at 2.5 uM for 24 hrs by annexin V-PI staining based flow cytometric analysis (reference value: 11.4%). Type of test: functional.
For test [8], the system named is A549. The test is described as follows: Induction of apoptosis in human A549 cells assessed as late apoptotic cells at 0.5 uM for 24 hrs by annexin V-PI staining based flow cytometric analysis (reference value: 2.3%). Type of test: functional.
In test [9] the test system is NCI-H1373. Description: Induction of apoptosis in human NCI-H1373 cells assessed as early apoptotic cells at 0.5 uM for 24 hrs by annexin V-PI staining based flow cytometric analysis (reference value: 0.6%). Type of test: functional.
Test [10] concerns NCI-H460. Description: Induction of apoptosis in human NCI-H460 cells assessed as early apoptotic cells at 0.5 uM for 24 hrs by annexin V-PI staining based flow cytometric analysis (reference value: 0.2%). Type of test: functional.
In test [11] the test system is NCI-H460. The test is described as follows: Induction of apoptosis in human NCI-H460 cells assessed as necrotic cells at 0.5 uM for 24 hrs by annexin V-PI staining based flow cytometric analysis (reference value: 2.7%). Type of test: functional.
The subject of test [12] is A549. The test is described as follows: Downregulation of c-MYC protein level in human A549 cells at 100 to 5000 nM upto 24 hrs by Western blot analysis. The conditions noted are these: dose 100-5000 nM. Type of test: functional, cell-based. (In general: In western blotting, separated proteins are transferred to a membrane and probed.)
Test [13] has as its system NCI-H460. Description: Downregulation of c-MYC mRNA expression level in human NCI-H460 cells at 0.1 to 1 uM for 24 hrs by qRT-PCR analysis. Type of test: functional, cell-based. Particulars: dose 0.1-1 µM. For orientation: In qPCR the cycle at which signal appears reflects the starting amount.
Test [14] deals with NCI-H1373. Description: Downregulation of XIAP mRNA expression level in human NCI-H1373 cells at 0.1 to 1 uM for 24 hrs by qRT-PCR analysis. Type of test: functional, cell-based. Particulars: dose 0.1-1 µM.
Test [15] deals with SK-LU-1. The test is described as follows: Downregulation of XIAP protein expression level in human SK-LU-1 cells at 1 uM for 24 hrs by […] analysis. Type of test: functional, cell-based.
For test [16], the system named is A549. Description: Downregulation of XIAP protein expression level in human A549 cells at 1 uM for 24 hrs by […] analysis. Type of test: functional, cell-based.
The test system of another test is NCI-H2030. Description: Downregulation of XIAP protein expression level in human NCI-H2030 cells at 1 uM for 24 hrs by […] analysis. Type of test: functional, cell-based.
A further test deals with NCI-H1792. Description: Downregulation of c-MYC protein expression level in human NCI-H1792 cells at 1 uM for 24 hrs by […] analysis. Type of test: functional, cell-based.
Test [17] deals with SK-LU-1. Description: Downregulation of c-MYC protein expression level in human SK-LU-1 cells at 1 uM for 24 hrs by […] analysis. Type of test: functional, cell-based.
A further test relates to NCI-H441. The test is described as follows: Downregulation of c-MYC protein expression level in human NCI-H441 cells at 1 uM for 24 hrs by […] analysis. Type of test: functional, cell-based.
In test [18] the test system is NCI-H1373. The test is described as follows: Induction of TRAIL dependent apoptosis in human NCI-H1373 cells assessed as viable cells at 1 uM by annexin V-PI staining based flow cytometric analysis (reference value: 87.6%). Type of test: functional. Particulars: read-out: Activity.
Test [19] deals with NCI-H1373. The test is described as follows: Induction of TRAIL dependent apoptosis in human NCI-H1373 cells assessed as late apoptotic cells at 1 uM in presence of […] by annexin V-PI staining based flow cytometric analysis (reference value: 8.3%). Type of test: functional.
Test [20] concerns NCI-H1373. Description: Antiproliferative activity against human NCI-H1373 cells at 500 to 2500 nM in presence of TNF by cell titre glo assay. Type of test: functional, cell-based. Particulars: dose 500-2500 nM.
Test [21] concerns NCI-H1373. Description: Induction of cell cycle arrest in human NCI-H1373 cells assessed as accumulation of cells at G0/G1 phase at 0.25 uM for 24 hrs by Click-iT EdU Alexa Fluor 647 flow cytometric assay kit analysis (reference value: 45%). Type of test: functional.
The subject of test [22] is NCI-H1373. Description: Induction of cell cycle arrest in human NCI-H1373 cells assessed as accumulation of cells at G0/G1 phase at 0.25 uM for 24 hrs by Click-iT EdU Alexa Fluor 647 flow cytometric assay kit analysis (reference value: 48%). Type of test: functional.
The test system of test [23] is NCI-H460. Description: Induction of cell cycle arrest in human NCI-H460 cells assessed as accumulation of cells at G0/G1 phase at 0.5 uM for 24 hrs by Click-iT EdU Alexa Fluor 647 flow cytometric assay kit analysis (reference value: 45%). Type of test: functional.
Test [24] has as its system DV-90. The test is described as follows: Induction of apoptosis in human DV-90 cells assessed as necrotic cells at 2.5 uM for 24 hrs by annexin V-PI staining based flow cytometric analysis (reference value: 8.4%). Type of test: functional.
Test [25] has as its system A549. The test is described as follows: Induction of apoptosis in human A549 cells assessed as necrotic cells at 2.5 uM for 24 hrs by annexin V-PI staining based flow cytometric analysis (reference value: 0.9%). Type of test: functional.
The test system of test [26] is NCI-H1373. Description: Induction of apoptosis in human NCI-H1373 cells assessed as necrotic cells at 0.5 uM for 24 hrs by annexin V-PI staining based flow cytometric analysis (reference value: 4.4%). Type of test: functional.
The subject of test [27] is NCI-H1373. The test is described as follows: Induction of apoptosis in human NCI-H1373 cells assessed as late apoptotic cells at 2.5 uM for 24 hrs by annexin V-PI staining based flow cytometric analysis (reference value: 22.3%). Type of test: functional.
The subject of test [28] is NCI-H460. Description: Induction of apoptosis in human NCI-H460 cells assessed as viable cells at 0.5 uM for 24 hrs by annexin V-PI staining based flow cytometric analysis (reference value: 92.8%). Type of test: functional. Particulars: read-out: Activity.
Test [29] concerns DV-90. The test is described as follows: Induction of apoptosis in human DV-90 cells assessed as necrotic cells at 0.5 uM for 48 hrs by annexin V-PI staining based flow cytometric analysis (reference value: 8.4%).
In test [30] the test system is DV-90. The test is described as follows: Induction of apoptosis in human DV-90 cells assessed as early apoptotic cells at 2.5 uM for 48 hrs by annexin V-PI staining based flow cytometric analysis (reference value: 1.0%).

Active and inactive are the calls of the source. No cut-off for these calls is given here.

For the molecule `Cc1sc2c(c1C)C(c1ccc(Cl)cc1)=N[C@@H](CC(=O)OC(C)(C)C)c1nnc(C)n1-2`, the Activity in the test with A549 [1] was found to be 4%; with A549 [2], 33%; with DV-90 [3], 51%; with DV-90 [4], 41%; in the test on NCI-H1373 [5], 7%; with NCI-H1373 [6] it was 63%. Further, the Activity with DV-90 [7] stood at 16%; with A549 [8], 1.5%; with NCI-H1373 [9], 2.5%; in the test on NCI-H460 [10] it was 0.2%; in the test on NCI-H460 [11], 4%; in the test on NCI-H1373 [19], 35.9%. The result in the test with A549 [12] was inactive. For the same molecule, the outcome in the test on NCI-H460 [13], with NCI-H1373 [14], in the test on SK-LU-1 [15], with A549 [16], in the test with NCI-H2030 and in the test with NCI-H1792 was Active. For the same molecule, the outcome with SK-LU-1 [17], in the test on NCI-H441 and in the test with NCI-H1373 [20] was Active. Besides, the viability at 1 µM in the test on NCI-H1373 [18] was determined as 64.4%.

On to `CCNC(=O)C[C@@H]1N=C(c2ccc(Cl)cc2)c2cc(OC)ccc2-n2c(C)nnc21` [MOLIBRESIB], for which the Activity in the test on NCI-H1373 [21] is listed as 49%; in the test on NCI-H1373 [22] it was 65%; in the test with NCI-H460 [23] it was 51%.

With `Cc1sc2c(c1C)C(c1ccc(Cl)cc1)=N[C@@H](CC(=O)Nc1ccc(O)cc1)c1nnc(C)n1-2` [BIRABRESIB], the Activity in the test with DV-90 [24] is 33.7%; in the test on A549 [25] it was 1.1%; in the test on NCI-H1373 [26], 9.6%; in the test with NCI-H1373 [27], 20.3%; with DV-90 [29], 27.6%; in the test with DV-90 [30] it was 2.6%. Further, in the test on NCI-H460 [28], the viability at 0.5 µM was 90.6%.
